This note sets out measurements from patent US20250109139A1, “TRICYCLIC COMPOUND, AND PREPARATION METHOD THEREFOR AND USE THEREOF” (SHANGHAITECH UNIVERSITY, priority 2022, published 2025).

The target in test [1] is T1, dopamine D2 receptors (Homo sapiens (Human), UniProt P14416). As to the kind of experiment: Dopamine D2 receptor Gαi1 BRET (G protein trimer dissociation). The test is classed as cell-based. The conditions noted are these: for Emax: relative to endogenous ligand dopamine, read-out: Gαi1 BRET Emax % ± SEM. The procedure: (§1) To examine the downstream G-protein signaling pathway mediated by dopamine D2 receptors, on the first day, a 6 cm culture dish was used for transfection with 1 μg of dopamine D2 receptors, 1 μg of Gαi1 containing C-terminal seaweed luciferase (Gαi1-Rluc), 1 μg of Gβ3, 1 μg of Gγ9 containing C-terminal green fluorescent protein (Gγ9-GFP) mixed with 16 μL of PEI. At the same time, in order to examine the downstream β-arrestin2 signaling pathway mediated by dopamine D2 receptors, on the first day, a 6 cm culture dish was used for transfection with […] of dopamine D2 receptors containing C-terminal seaweed luciferase (D2-Rluc), […] of G protein-coupled receptor kinase 2 (GRK2), […] of β-arrestin2 containing N-terminal green fluorescent protein (GFP2-ARRB2) mixed with 14 μL of PEI. The next day, the confluent cells of a 6 cm culture dish were digested and reseeded into a 96-well plate with 100 μL of culture medium added to each well. On the third day, the drugs were added for test. The 96-well plate was taken out from the cell incubator to decant the culture medium, 40 μL of the substrate coelenterazine 400a (final concentration of 5 μM) was added to each well, and then 20 μL of different drugs were added sequentially from left to right to ensure that the final concentration of the drug decreased gradually from bottom to top, with two replicates per treatment. Finally, the prepared samples were loaded on machine for test. The machine readout value reflected the recruitment of β-arrestin2 to the membrane or the dissociation of G protein trimer. The former indicated the degree of activation of the β-arrestin2 signaling pathway downstream of the dopamine D2 receptors, and the latter indicated the degree of activation of the G protein signaling pathway downstream of the dopamine D2 receptors.
On the technique in general: In BRET a luciferase serves as donor, and the signal depends on an acceptor being close.

In test [2] the target is T1, dopamine D2 receptors. As to the kind of experiment: Dopamine D2 receptor β-arrestin2 BRET (recruitment). Type of test: cell-based. Conditions: for Emax: relative to endogenous ligand dopamine, read-out: β-arrestin2 BRET Emax % ± SEM. Here is the method: as §1
Setting [3] is: unit printed only in Cariprazine cell, read-out: Gαi1 BRET EC50.
The mark [4] stands for this setting: unit printed only in Cariprazine cell, read-out: β-arrestin2 BRET EC50.
[5] abbreviates: read-out: Gαi1 BRET pEC50 ± SEM (converted).

T1 sequence (P14416 whole entry): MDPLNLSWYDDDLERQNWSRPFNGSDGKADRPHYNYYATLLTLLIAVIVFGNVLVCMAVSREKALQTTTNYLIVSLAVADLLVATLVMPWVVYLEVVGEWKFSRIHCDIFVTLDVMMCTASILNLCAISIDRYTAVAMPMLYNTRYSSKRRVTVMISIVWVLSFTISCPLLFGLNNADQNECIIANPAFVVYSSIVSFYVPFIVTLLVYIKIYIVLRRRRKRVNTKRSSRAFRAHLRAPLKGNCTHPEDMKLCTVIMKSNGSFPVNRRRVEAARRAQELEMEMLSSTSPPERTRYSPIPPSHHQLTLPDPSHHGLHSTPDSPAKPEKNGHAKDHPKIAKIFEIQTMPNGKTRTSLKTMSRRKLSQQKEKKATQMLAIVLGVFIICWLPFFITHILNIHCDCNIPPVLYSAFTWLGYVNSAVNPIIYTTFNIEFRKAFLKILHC

With `COc1cccc2c3c(oc12)CN(CCCCOc1ccc2ccc(=O)n(C)c2c1)CC3` [I-A4, 7-(4-(8-methoxy-3,4-dihydrobenzofuro[2,3-c]pyridin-2(1H)-yl)butoxy)-1-methylquinolin-2(1H)-one], in test [1], the “Gαi1 BRET pEC50 ± SEM” value is “(6.16 ± 0.06)” and the Emax – broadly, the greatest response seen or fitted, relative to the assay's reference – came to 55%. Further, the EC50 in test [1] (setting [3]) came to 709 nM. Besides, in test [2], the “β-arrestin2 BRET pEC50 ± SEM” value is “(7.17 ± 0.18)” and the Emax amounted to 65%. Besides, the EC50 in test [2] (setting [4]) was 81.2 nM.
On to `COc1cccc2c1nc1n2CCN(CCCCOc2ccc3ccc(=O)[nH]c3c2)C1` [I-D1, 7-(4-(9-methoxy-3,4-dihydrobenzo[4,5]imidazo[1,2-a]pyrazin-2(1H)-yl)butoxy)quinolin-2(1H)-one], for which the EC50 in test [1] (setting [5]) is 263 nM; in test [1] (setting [3]) it was 267 nM; in test [2] (setting [4]), 56 nM. The values for the Emax in test [1] and in test [2] were 77% and 100%, respectively.
As to `COc1cccc2c1cc1n2CCN(C/C=C/COc2ccc3c(c2)NC(=O)CC3)C1` [I-C6, (E)-7-((4-(9-methoxy-3,4-dihydropyrazino[1,2-a]indol-2(1H)-yl)but-2-en-1-yl)oxy)-3,4-dihydroquinolin-2(1H)-one], the Emax in test [1] came out at 49%; in test [2], 92%. Moreover, the EC50 in test [1] (setting [3]) stood at 276 nM; in test [2] (setting [4]) it was 2.45 nM.
Turning to `COc1cccc2c1nc1n2CCN(C/C=C/COc2ccc3c(c2)NC(=O)CC3)C1` [I-D5, (E)-7-((4-(9-methoxy-3,4-dihydrobenzo[4,5]imidazo[1,2-a]pyrazin-2(1H)-yl)but-2-en-1-yl)oxy)-3,4-dihydroquinolin-2(1H)-one], the values for the EC50 in test [1] (setting [5]), in test [1] (setting [3]) and in test [2] (setting [4]) were 162 nM, 160 nM and 38.8 nM, respectively. Further, the Emax in test [1] was 46%; in test [2], 66%.
For `CCOc1cccc2c3c(oc12)CN(CC[C@H]1CC[C@H](NC(=O)N(C)C)CC1)CC3` [I-A17, 3-(trans-4-(2-(8-ethoxy-3,4-dihydrobenzofuro[2,3-c]pyridin-2(1H)-yl)ethyl)cyclohexyl)-1,1-dimethylurea], in that order: 3.67 nM, 4.37 nM, 6.7 nM, 49% and 29%.
`COc1cccc2c1nc1n2CCN(CCCOc2ccc3c(c2)NC(=O)CC3)C1` [I-D4, 7-(3-(9-methoxy-3,4-dihydrobenzo[4,5]imidazo[1,2-a]pyrazin-2(1H)-yl)propoxy)-3,4-dihydroquinolin-2(1H)-one]: the Emax worked out at 81% in test [1] and 89% in test [2]. The EC50 in test [1] (setting [3]) worked out at 159 nM; in test [2] (setting [4]) it was 33.6 nM.
The corresponding values for `COc1cccc2c1nc1n2CCN(CCCOc2ccc3ccc(=O)[nH]c3c2)C1` [I-D3, 7-(3-(9-methoxy-3,4-dihydrobenzo[4,5]imidazo[1,2-a]pyrazin-2(1H)-yl)propoxy)quinolin-2(1H)-one] are 71%, 97%, 130 nM and 18.3 nM.
For the compound `COc1cccc2c3c([nH]c12)CN(CC1(O)CCCCC1)CC3` [I-B9, 1-((8-methoxy-1,3,4,9-tetrahydro-2H-pyrido[3,4-b]indol-2-yl)methyl)cyclohexan-1-ol], the EC50 was 61.7 nM in test [1] (setting [5]), 43.3 nM in test [1] (setting [3]) and 133 nM in test [2] (setting [4]). Moreover, the figures for the Emax in test [1] and in test [2] were 14% and 51%, respectively.
As to `COc1cccc2c1cc1n2CCN(CC2(O)CCCCC2)C1` [I-C12, 1-((9-methoxy-3,4-dihydropyrazino[1,2-a]indol-2(1H)-yl)methyl)cyclohexan-1-ol], the EC50 in test [1] (setting [5]) was 38.9 nM; in test [1] (setting [3]) it was 23.4 nM; in test [2] (setting [4]) it was 54.4 nM. For the same compound, the figures for the Emax in test [1] and in test [2] were 66% and 52%, respectively.
The corresponding values for `CCOc1cccc2c1cc1n2CCN(CCCCOc2ccc3ccc(=O)[nH]c3c2)C1` [I-C10, 7-(4-(9-ethoxy-3,4-dihydropyrazino[1,2-a]indol-2(1H)-yl)butoxy)quinolin-2(1H)-one] are 120 nM, 118 nM, 828 nM, 20% and 49%.
`CCOc1cccc2c1cc1n2CCN(CC[C@H]2CC[C@H](NC(=O)N(C)C)CC2)C1` [I-C11, 3-(trans-4-(2-(9-ethoxy-3,4-dihydropyrazino[1,2-a]indol-2(1H)-yl)ethyl)cyclohexyl)-1,1-dimethylurea]: the figures for the Emax in test [1] and in test [2] were 23% and 45%, respectively. Also, the figures for the EC50 in test [1] (setting [3]) and in test [2] (setting [4]) were 39.8 nM and 128 nM, respectively.
On to `COc1cccc2c3c([nH]c12)CN(CCCOc1ccc2c(c1)NC(=O)CC2)CC3` [I-B5, 7-(3-(8-methoxy-1,3,4,9-tetrahydro-2H-pyrido[3,4-b]indol-2-yl)propoxy)-3,4-dihydroquinolin-2(1H)-one], for which the results for the Emax in test [1] and in test [2] were 35% and 76%, respectively. The results for the EC50 in test [1] (setting [3]) and in test [2] (setting [4]) were 43.6 nM and 6.53 nM, respectively.
Regarding `COc1cccc2c1nc1n2CCN(CCCCOc2ccc3c(c2)NC(=O)CC3)C1` [I-D2, 7-(4-(9-methoxy-3,4-dihydrobenzo[4,5]imidazo[1,2-a]pyrazin-2(1H)-yl)butoxy)-3,4-dihydroquinolin-2(1H)-one], the EC50 in test [1] (setting [5]) was 324 nM; in test [1] (setting [3]), 355 nM; in test [2] (read-out: β-arrestin2 BRET pEC50 ± SEM (converted)), 69.2 nM; in test [2] (setting [4]) it was 70.1 nM. The Emax in test [1] came to 71%; in test [2], 106%.
With `COc1cccc2c1nc1n2CCN(CC2(O)CCCCC2)C1` [I-D7, 1-((9-methoxy-3,4-dihydrobenzo[4,5]imidazo[1,2-a]pyrazin-2(1H)-yl)methyl)cyclohexan-1-ol], the EC50 in test [1] (setting [5]) was 95.5 nM; in test [1] (setting [3]), 79 nM; in test [2] (setting [4]), 180 nM. For the same compound, the Emax in test [1] turned out to be 67%; in test [2] it was 41%.
